# Results: US9809623B2, “α4β7 peptide monomer and dimer antagonists” (Protagonist Therapeutics, Inc., priority 2014, dated 2017)
# Numbered stars: 1 amine (or outer) side, 2 acyl side, 3 side chain; on linkers, the order of the positions; unused ones are H or OH. Bridge positions count the residues as written; N and C are the ends. Square brackets hold non-standard residues; d marks the D form. Peptide text beside a SMILES is read from it. I, II: the chains in the order shown. Phe(4-COOH) = N[C@@H](Cc1ccc(C(=O)O)cc1)C(=O)O; Phe(2,4-Cl2) = N[C@@H](Cc1ccc(Cl)cc1Cl)C(=O)O; Bip = N[C@@H](Cc1ccc(-c2ccccc2)cc1)C(=O)O; 1Nal = N[C@@H](Cc1cccc2ccccc12)C(=O)O; 2Nal = N[C@@H](Cc1ccc2ccccc2c1)C(=O)O; d2Nal = N[C@H](Cc1ccc2ccccc2c1)C(=O)O; Diglycolyl = O=C(COCC(=O)[*:2])[*:1]; NMeR = CN[C@@H](CCCNC(=N)N)C(=O)O; Tic = O=C(O)[C@@H]1Cc2ccccc2CN1; Pen = CC(C)(S)[C@H](N)C(=O)O
# Biological target: α4β7 (Homo sapiens, UniProt P13612+P26010)
# Sequence (P13612 34-1032): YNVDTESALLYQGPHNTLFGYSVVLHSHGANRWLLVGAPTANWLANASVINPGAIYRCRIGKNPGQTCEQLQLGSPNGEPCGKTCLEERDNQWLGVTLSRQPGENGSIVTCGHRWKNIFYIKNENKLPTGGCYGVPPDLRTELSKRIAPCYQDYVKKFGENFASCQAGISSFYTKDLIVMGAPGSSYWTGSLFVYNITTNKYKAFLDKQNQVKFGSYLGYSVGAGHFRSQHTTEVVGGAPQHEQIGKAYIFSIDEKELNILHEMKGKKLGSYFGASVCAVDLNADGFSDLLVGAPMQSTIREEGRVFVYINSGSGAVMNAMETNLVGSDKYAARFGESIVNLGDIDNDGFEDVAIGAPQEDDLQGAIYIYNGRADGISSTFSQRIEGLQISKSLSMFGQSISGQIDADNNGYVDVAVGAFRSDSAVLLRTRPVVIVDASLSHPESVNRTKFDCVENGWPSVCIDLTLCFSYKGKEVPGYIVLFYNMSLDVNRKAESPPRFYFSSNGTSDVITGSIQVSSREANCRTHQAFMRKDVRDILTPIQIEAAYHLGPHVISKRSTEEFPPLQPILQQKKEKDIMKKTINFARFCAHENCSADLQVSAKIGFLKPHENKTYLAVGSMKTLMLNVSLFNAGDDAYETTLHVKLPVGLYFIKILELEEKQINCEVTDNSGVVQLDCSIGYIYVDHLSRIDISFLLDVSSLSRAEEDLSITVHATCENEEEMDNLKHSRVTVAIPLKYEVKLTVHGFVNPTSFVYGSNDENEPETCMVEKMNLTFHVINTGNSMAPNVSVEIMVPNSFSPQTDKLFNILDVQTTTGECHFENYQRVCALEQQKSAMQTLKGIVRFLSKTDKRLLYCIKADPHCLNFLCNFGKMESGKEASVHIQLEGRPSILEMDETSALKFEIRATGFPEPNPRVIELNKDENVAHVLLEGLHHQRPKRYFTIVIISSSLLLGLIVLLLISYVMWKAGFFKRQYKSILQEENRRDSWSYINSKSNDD
# Sequence (P26010 20-798): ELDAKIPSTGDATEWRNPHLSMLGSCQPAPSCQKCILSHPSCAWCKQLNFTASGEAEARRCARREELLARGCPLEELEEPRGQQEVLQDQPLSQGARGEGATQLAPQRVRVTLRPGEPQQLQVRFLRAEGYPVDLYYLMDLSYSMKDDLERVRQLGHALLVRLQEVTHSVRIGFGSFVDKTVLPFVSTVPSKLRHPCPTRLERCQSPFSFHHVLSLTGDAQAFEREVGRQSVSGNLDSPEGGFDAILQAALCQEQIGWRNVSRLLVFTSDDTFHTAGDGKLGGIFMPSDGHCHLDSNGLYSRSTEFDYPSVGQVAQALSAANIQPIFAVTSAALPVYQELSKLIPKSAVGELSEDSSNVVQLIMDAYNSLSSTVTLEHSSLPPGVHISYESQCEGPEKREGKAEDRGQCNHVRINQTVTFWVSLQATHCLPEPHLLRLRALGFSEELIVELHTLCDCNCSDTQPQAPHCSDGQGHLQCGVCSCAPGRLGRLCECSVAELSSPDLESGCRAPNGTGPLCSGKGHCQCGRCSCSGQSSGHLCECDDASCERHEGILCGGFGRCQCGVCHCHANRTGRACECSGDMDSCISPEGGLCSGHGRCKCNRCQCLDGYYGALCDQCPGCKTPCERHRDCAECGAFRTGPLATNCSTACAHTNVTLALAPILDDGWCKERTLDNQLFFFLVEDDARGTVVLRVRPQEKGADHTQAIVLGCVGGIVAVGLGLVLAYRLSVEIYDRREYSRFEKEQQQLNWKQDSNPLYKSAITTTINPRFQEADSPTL
# Experiment: α4β7-MAdCAM Cell Adhesion Assay (RPMI 8866 human cells)
# Format: cell-based
# Set-up: host or cells: RPMI 8866 human B lymphoblastoid cells
# Settings: Table 3-B, Potency (α4β7); range classes; read-out: α4β7 cell (Hu) IC50
# Description: RPMI 8866 human cells (Sigma #95041316) were cultured in RPMI 1640 HEPES medium (Invitrogen #22400-089) supplemented with 10% serum (Fetal Bovine Serum, Invitrogen #16140-071), 1 mM sodium pyruvate (Invitrogen #11360-070), 2 mM L-glutamine (Invitrogen #25030-081) and Penicillin-Streptomycin (Invitrogen #15140-122) at 100 units of penicillin and 100 μg of streptomycin per ml. The cells were washed two times in DMEM medium (ATCC #30-2002) supplemented with 0.1% BSA, 10 mM HEPES pH 7 and 1 mM MnCl2. The cells were re-suspended in supplemented DMEM medium at a density of 4×10^6 cells/ml.
# A Nunc MaxiSorp plate was coated with rh MAdCAM-1/Fc Chimera (R&D #6065-MC) at 200 ng per well in 50 ul per well in 1×PBS and incubated at 4° C. overnight. The solution was then removed by shaking, blocked with 250 ul per well PBS containing 1% BSA, and incubated at 37° C. for 1 hr. The solution was removed by shaking. Peptides were diluted by serial dilution in a final volume of 50 ul per well (2× concentration). To each well, 50 ul of cells (200,000 cells) were added and the plate was incubated at 37° C., 5% CO2 for 30-45 min to allow cell adhesion. The wells were washed manually three times (100 ul per wash) with supplemented DMEM. After the final wash, 100 ul/well of supplemented DMEM and 10 ul/well of MTT reagent (ATTC cat#30-1010K) were added. The plate was incubated at 37° C., 5% CO2 for 2-3 hrs until a purple precipitate was visible. 100 ul of Detergent Reagent (ATTC cat#30-1010K) was added to each well. The plate was covered from the light, wrapped in Parafilm to prevent evaporation, and left overnight at room temperature in the dark. The plate was shaken for 5 min and the absorbance at 570 nm was measured. To calculate the dose response, the absorbance value of control wells not containing cells was subtracted from each test well.
row,SMILES,IC50 [nM]
1,"CC(=O)N[C@@H]1C(=O)N(C)[C@@H](CCCNC(=N)N)C(=O)N[C@@H](CO)C(=O)N[C@@H](CC(=O)O)C(=O)N[C@@H]([C@@H](C)O)C(=O)N[C@@H](CC(C)C)C(=O)N[C@H](C(=O)N[C@@H](Cc2ccc(C(=O)O)cc2)C(=O)N[C@H](CCC(=O)O)C(=O)N[C@H](CCCCNC(=O)COCC(=O)NCCCC[C@@H](NC(=O)[C@@H](CCC(=O)O)NC(=O)[C@H](Cc2ccc(C(=O)O)cc2)NC(=O)[C@H]2NC(=O)[C@H](CC(C)C)NC(=O)[C@H]([C@@H](C)O)NC(=O)[C@H](CC(=O)O)NC(=O)[C@H](CO)NC(=O)[C@H](CCCNC(=N)N)N(C)C(=O)[C@@H](NC(C)=O)C(C)(C)SSC2(C)C)C(N)=O)C(N)=O)C(C)(C)SSC1(C)C [compound 100] (I: Ac-[Pen][NMeR]SDTL[Pen][Phe(4-COOH)][dE][dK]-NH2 / II: Ac-[Pen][NMeR]SDTL[Pen][Phe(4-COOH)][dE][dK]-NH2; disulfide I:1-I:7, II:1-II:7; linker I:10-II:10 via Diglycolyl)",< 10
2,CC(=O)N[C@@H]1C(=O)N(C)[C@@H](CCCNC(=N)N)C(=O)N[C@@H](CO)C(=O)N[C@@H](CC(=O)O)C(=O)N[C@@H]([C@@H](C)O)C(=O)N[C@@H](Cc2ccccc2)C(=O)N[C@H](C(=O)N[C@@H](Cc2ccc3ccccc3c2)C(=O)N[C@H](CCC(=O)O)C(N)=O)C(C)(C)SSC1(C)C [compound 162] (Ac-[Pen][NMeR]SDTF[Pen][2Nal][dE]-NH2; disulfide 1-7),1000 to 10000
3,"CC(=O)N[C@@H]1C(=O)N(C)[C@@H](CCCNC(=N)N)C(=O)N[C@@H](CO)C(=O)N[C@@H](CC(=O)O)C(=O)N[C@@H]([C@@H](C)O)C(=O)N[C@@H](CC(C)C)C(=O)N[C@H](C(=O)N[C@@H](Cc2ccc(Cl)cc2Cl)C(=O)N[C@H](CCC(=O)O)C(=O)N[C@H](CCCCNC(=O)COCC(=O)NCCCC[C@@H](NC(=O)[C@@H](CCC(=O)O)NC(=O)[C@H](Cc2ccc(Cl)cc2Cl)NC(=O)[C@H]2NC(=O)[C@H](CC(C)C)NC(=O)[C@H]([C@@H](C)O)NC(=O)[C@H](CC(=O)O)NC(=O)[C@H](CO)NC(=O)[C@H](CCCNC(=N)N)N(C)C(=O)[C@@H](NC(C)=O)C(C)(C)SSC2(C)C)C(N)=O)C(N)=O)C(C)(C)SSC1(C)C [compound 101] (I: Ac-[Pen][NMeR]SDTL[Pen][Phe(2,4-Cl2)][dE][dK]-NH2 / II: Ac-[Pen][NMeR]SDTL[Pen][Phe(2,4-Cl2)][dE][dK]-NH2; disulfide I:1-I:7, II:1-II:7; linker I:10-II:10 via Diglycolyl)",50 to 100
4,CC(=O)N[C@@H]1C(=O)N(C)[C@@H](CCCNC(=N)N)C(=O)N[C@@H](CO)C(=O)N[C@@H](CC(=O)O)C(=O)N[C@@H](CC(C)C)C(=O)N[C@@H](CC(C)C)C(=O)N[C@H](C(=O)N[C@@H](Cc2ccc3ccccc3c2)C(=O)N[C@H](CCC(=O)O)C(N)=O)C(C)(C)SSC1(C)C [compound 159] (Ac-[Pen][NMeR]SDLL[Pen][2Nal][dE]-NH2; disulfide 1-7),1000 to 10000
5,"CC(=O)N[C@@H]1C(=O)N(C)[C@@H](CCCNC(=N)N)C(=O)N[C@@H](CO)C(=O)N[C@@H](CC(=O)O)C(=O)N[C@@H]([C@@H](C)O)C(=O)N[C@@H](CC(C)C)C(=O)N[C@H](C(=O)N[C@@H](Cc2c[nH]c3ccccc23)C(=O)N2Cc3ccccc3C[C@H]2C(=O)N[C@H](CCCCNC(=O)COCC(=O)NCCCC[C@@H](NC(=O)[C@@H]2Cc3ccccc3CN2C(=O)[C@H](Cc2c[nH]c3ccccc23)NC(=O)[C@H]2NC(=O)[C@H](CC(C)C)NC(=O)[C@H]([C@@H](C)O)NC(=O)[C@H](CC(=O)O)NC(=O)[C@H](CO)NC(=O)[C@H](CCCNC(=N)N)N(C)C(=O)[C@@H](NC(C)=O)C(C)(C)SSC2(C)C)C(N)=O)C(N)=O)C(C)(C)SSC1(C)C [compound 109] (I: Ac-[Pen][NMeR]SDTL[Pen]W[Tic][dK]-NH2 / II: Ac-[Pen][NMeR]SDTL[Pen]W[Tic][dK]-NH2; disulfide I:1-I:7, II:1-II:7; linker I:10-II:10 via Diglycolyl)",100 to 500
6,"CC(=O)N[C@@H]1C(=O)N(C)[C@@H](CCCNC(=N)N)C(=O)N[C@@H](CO)C(=O)N[C@@H](CC(=O)O)C(=O)N[C@@H]([C@@H](C)O)C(=O)N[C@@H](CC(C)C)C(=O)N[C@H](C(=O)N[C@@H](Cc2c[nH]c3ccccc23)C(=O)N2CCC[C@@H]2C(=O)N[C@@H](CCCCNC(=O)COCC(=O)NCCCC[C@H](NC(=O)[C@H]2CCCN2C(=O)[C@H](Cc2c[nH]c3ccccc23)NC(=O)[C@H]2NC(=O)[C@H](CC(C)C)NC(=O)[C@H]([C@@H](C)O)NC(=O)[C@H](CC(=O)O)NC(=O)[C@H](CO)NC(=O)[C@H](CCCNC(=N)N)N(C)C(=O)[C@@H](NC(C)=O)C(C)(C)SSC2(C)C)C(N)=O)C(N)=O)C(C)(C)SSC1(C)C [compound 96] (I: Ac-[Pen][NMeR]SDTL[Pen]W[dP]K-NH2 / II: Ac-[Pen][NMeR]SDTL[Pen]W[dP]K-NH2; disulfide I:1-I:7, II:1-II:7; linker I:10-II:10 via Diglycolyl)",50 to 100
7,"CC(=O)N[C@@H]1C(=O)N(C)[C@@H](CCCNC(=N)N)C(=O)N[C@@H](CO)C(=O)N[C@@H](CC(=O)O)C(=O)N[C@@H]([C@@H](C)O)C(=O)N[C@@H](CC(C)C)C(=O)N[C@H](C(=O)N[C@H](Cc2ccc3ccccc3c2)C(=O)N[C@@H](CCC(=O)O)C(=O)N[C@H](CCCCNC(=O)COCC(=O)NCCCC[C@@H](NC(=O)[C@H](CCC(=O)O)NC(=O)[C@@H](Cc2ccc3ccccc3c2)NC(=O)[C@H]2NC(=O)[C@H](CC(C)C)NC(=O)[C@H]([C@@H](C)O)NC(=O)[C@H](CC(=O)O)NC(=O)[C@H](CO)NC(=O)[C@H](CCCNC(=N)N)N(C)C(=O)[C@@H](NC(C)=O)C(C)(C)SSC2(C)C)C(N)=O)C(N)=O)C(C)(C)SSC1(C)C [compound 35] (I: Ac-[Pen][NMeR]SDTL[Pen][d2Nal]E[dK]-NH2 / II: Ac-[Pen][NMeR]SDTL[Pen][d2Nal]E[dK]-NH2; disulfide I:1-I:7, II:1-II:7; linker I:10-II:10 via Diglycolyl)",100 to 500
8,"CC(=O)N[C@@H]1C(=O)N(C)[C@@H](CCCNC(=N)N)C(=O)N[C@@H](CO)C(=O)N[C@@H](CC(=O)O)C(=O)N[C@@H]([C@@H](C)O)C(=O)N[C@@H](CC(C)C)C(=O)N[C@H](C(=O)N[C@@H](Cc2ccc(-c3ccccc3)cc2)C(=O)N[C@H](CCC(=O)O)C(=O)N[C@H](CCCCNC(=O)COCC(=O)NCCCC[C@@H](NC(=O)[C@@H](CCC(=O)O)NC(=O)[C@H](Cc2ccc(-c3ccccc3)cc2)NC(=O)[C@H]2NC(=O)[C@H](CC(C)C)NC(=O)[C@H]([C@@H](C)O)NC(=O)[C@H](CC(=O)O)NC(=O)[C@H](CO)NC(=O)[C@H](CCCNC(=N)N)N(C)C(=O)[C@@H](NC(C)=O)C(C)(C)SSC2(C)C)C(N)=O)C(N)=O)C(C)(C)SSC1(C)C [compound 108] (I: Ac-[Pen][NMeR]SDTL[Pen][Bip][dE][dK]-NH2 / II: Ac-[Pen][NMeR]SDTL[Pen][Bip][dE][dK]-NH2; disulfide I:1-I:7, II:1-II:7; linker I:10-II:10 via Diglycolyl)",10 to 25
9,"CC(=O)N[C@@H]1C(=O)N(C)[C@@H](CCCNC(=N)N)C(=O)N[C@@H](CO)C(=O)N[C@@H](CC(=O)O)C(=O)N[C@@H]([C@@H](C)O)C(=O)N[C@@H](CC(C)C)C(=O)N[C@H](C(=O)N[C@@H](Cc2cccc3ccccc23)C(=O)N[C@H](Cc2ccccc2)C(=O)N[C@H](CCCCNC(=O)COCC(=O)NCCCC[C@@H](NC(=O)[C@@H](Cc2ccccc2)NC(=O)[C@H](Cc2cccc3ccccc23)NC(=O)[C@H]2NC(=O)[C@H](CC(C)C)NC(=O)[C@H]([C@@H](C)O)NC(=O)[C@H](CC(=O)O)NC(=O)[C@H](CO)NC(=O)[C@H](CCCNC(=N)N)N(C)C(=O)[C@@H](NC(C)=O)C(C)(C)SSC2(C)C)C(N)=O)C(N)=O)C(C)(C)SSC1(C)C [compound 111] (I: Ac-[Pen][NMeR]SDTL[Pen][1Nal][dF][dK]-NH2 / II: Ac-[Pen][NMeR]SDTL[Pen][1Nal][dF][dK]-NH2; disulfide I:1-I:7, II:1-II:7; linker I:10-II:10 via Diglycolyl)",100 to 500
10,"CC(=O)N[C@@H]1C(=O)N(C)[C@@H](CCCNC(=N)N)C(=O)N[C@@H](CO)C(=O)N[C@@H](CC(=O)O)C(=O)N[C@@H]([C@@H](C)O)C(=O)N[C@@H](CC(C)C)C(=O)N[C@H](C(=O)N[C@@H](Cc2c[nH]cn2)C(=O)N[C@H](CCC(=O)O)C(=O)N[C@H](CCCCNC(=O)COCC(=O)NCCCC[C@@H](NC(=O)[C@@H](CCC(=O)O)NC(=O)[C@H](Cc2c[nH]cn2)NC(=O)[C@H]2NC(=O)[C@H](CC(C)C)NC(=O)[C@H]([C@@H](C)O)NC(=O)[C@H](CC(=O)O)NC(=O)[C@H](CO)NC(=O)[C@H](CCCNC(=N)N)N(C)C(=O)[C@@H](NC(C)=O)C(C)(C)SSC2(C)C)C(N)=O)C(N)=O)C(C)(C)SSC1(C)C [compound 124] (I: Ac-[Pen][NMeR]SDTL[Pen]H[dE][dK]-NH2 / II: Ac-[Pen][NMeR]SDTL[Pen]H[dE][dK]-NH2; disulfide I:1-I:7, II:1-II:7; linker I:10-II:10 via Diglycolyl)",100 to 500
